B1: IFNγ: interferon-γ used to stimulate prostate cell lines, 100 U/ml (protein, UniProt P01579 24-161, looked up)
Interferon gamma: QDPYVKEAENLKKYFNAGHSDVADNGTLFLGILKNWKEESDRKIMQSQIVSFYFKLFKNFKDDQSIQKSVETIKEDMNVKFFNSNKKKRDDFEKLTNYSVTDLNVQRKAIHELIQVMAELSPAAKTGKRKRSQMLFRG

Experiments:
TZ BPH prostate tissue = assay: Microarray gene expression in TZ BPH nodular tissue of drug treated patients, dChip/ANOVA analysis (Table 11); format: in vivo, human; conditions: for expression of the five markers MIG (CXCL9), IP 10 (CXCL10), I-TAC (CXCL11), Contactin-1 (CNTN1), Dickkopf-3 (DKK3): TZ BPH tissue from treated patients versus untreated BPH tissue
Text: In specific embodiments of the present invention, the inventors employed the exemplary Affymetrix U133 Plus 2.0 whole genome microarrays to profile gene expression in the transition zone (TZ) of small (≦30 g) and big (≧70 g) prostates. In addition, they also profiled gene expression changes in TZ benign prostatic hyperplasia (BPH) tissue from patients treated with α1-receptor blockade (tamsulosin), 5α-reductase type II inhibition (finasteride), or both medications combined. Integrating the results from these profiles led to the discovery of 5 exemplary polynucleotides that in specific embodiments are diagnostic and/or prognostic biomarkers for BPH. These exemplary markers include the three interferon inducible pro-inflammatory chemokines, MIG (CXCL9), IP 10 (CXCL10), and I-TAC (CXCL11), the adhesion molecule Contactin-1 (CNTN1), the Wnt pathway signaling inhibitor Dickkopf-3 (DKK3), and any combination thereof. […] In further specific embodiments, the mechanisms by which these inflammatory BPH markers are induced and their influence on prostate hyperplasia is determined.
To address the second specific embodiment, patients awaiting radical prostatectomy were given a standard therapeutic course of tamsulosin, finasteride or both tamsulosin and finasteride for 2, 4, or 6 weeks prior to surgery. TZ BPH nodular tissue was isolated post surgery. Total RNA was purified from 24 samples from individual patients and analyzed using Affymetrix U133 Plus 2.0 microarrays. Of the 24 arrays run on drug treated patient prostates, 7 were ultimately excluded from the final analysis due poor signal quality within the arrays.
Expression levels from drug treated prostate tissue were analyzed with dChip. Comparison of changes in gene expression between drugs and between time of therapy was performed by ANOVA. This initial analysis yielded 3568 genes with significant a difference (p≦0.01) in at least 1 comparison. […] Genes regulated by drug treatment were grouped by pathway or common function and those showing multiple changes in expression are shown in Table 11.

prostate RNA samples = assay: Real-time quantitative RT-PCR validation in prostate samples from drug treated patients; format: in vivo, human; conditions: BPH nodules, drug treatment versus no drug
Description: To further refine the list of genes profiled in the microarray studies, the differential expression of 30 of these genes were tested by real-time quantitative RT-PCR (Q-RT-PCR). Since Q-RT-PCR is based on the detection of small amplimers (80-150 base pairs) it. is less affected by RNA degradation than microarrays. This allowed the inventors to used a larger sample set of prostate RNA than were included in the microarray analyses. The inventors tested […] small and 10 big prostate samples (including the 15 samples from the array analysis) and 24 samples from drug treated patients (10 treated with finasteride, 7 treated with tamsulosin, and 7 treated with both drugs). Individual comparisons were made between small and big prostates and between no drug (all 18 small and big samples) and drug treatments for each therapy drug condition without consideration of the treatment duration. Several groups of genes validated with significant differences by Q-RT-PCR between small and big prostate and/or those regulated by at least one drug treatment. The three pro-inflammatory chemokines CXCL9 (MIG), CXCL10 (IP-10), and CXCL11 (I-TAC) are best known for production by monocytes as chemotactic agents for T cells (Kim and Broxmeyer, 1999). […]

[1] = tested on: prostate transition zone tissue; assay: Microarray (Affymetrix U133 Plus 2.0) gene expression in prostates of patients treated with finasteride, tamsulosin or both before radical prostatectomy (Table 7); format: in vivo, human; conditions: patients treated 2, 4 or 6 weeks before prostatectomy; minus sign = down regulation
Description: In non-limiting exemplary embodiments of the invention, a randomized, open-label, single-center study was performed to determine the spatio-temporal changes in gene expression within the prostate of patients who receive 0.4 mg of Flomax® (tamsulosin) capsules daily, 5 mg of Proscar® (finasteride) tablets daily, or both for either 6, 4, or 2 weeks prior to radical prostatectomy. Tissue samples from radical prostatectomy specimens were obtained under an ongoing IRB-approved protocol (H-1158). Zone-specific tissue samples from patients undergoing radical prostatectomy for clinically localized prostate cancer were harvested and frozen in liquid nitrogen for later analysis. In addition to prostate cancer tissue samples, samples from the transition zone from these patients have also been harvested. Participants were randomly allocated to one of three drug treatment arms, after being categorized into one of three groups according to the duration from enrollment date to scheduled surgery date. BPH related symptoms were assessed using self-administered BPH symptom questionnaires at day of enrollment and every 2 weeks (no clinic visit required) until surgery. Medication compliance is assessed at the time of radical prostatectomy. FIG. 1 illustrates an exemplary randomized block design with variable block size for randomly assigning participants to nine treatment groups. After standard quality control analysis of extracted mRNA, 20 samples from patient prostates treated with either finasteride, tamsulosin, or both drugs together for 2, 4, or 6 weeks, were subjected to microarray chip hybridization (in conjunction with the Baylor College of Medicine Microarray Core Facility). In Table 6, patients were treated with the 5-alpha reductase inhibitor, Finasteride (FIN), or the alpha-1 adrenergic receptor antagonist, Tamsulosin (TAM), or both drugs together (FIN+TAM) for the times indicated prior to prostatectomy. Samples were used in Affymetrix U133 Plus 2.0 microarray analysis as shown. Through this analysis, a number of genes (listed in Table 7) were identified whose expression was modulated by drug treatment. These genes are associated with inflammatory pathways (an exemplary embodiment of which is provided in FIG. 2), Wnt signaling pathway (an exemplary embodiment of which is provided in FIG. 3); cell signaling and cell cycle regulatory pathway (an exemplary embodiment of which is provided in FIG. 4), or extracellular matrix remodeling. Although several of these genes have previously been implicated in prostate cancer progression, they have not been described in connection with progression of BPH or in connection with the exemplary drug treatment regimes described above. In Table 7, there are polynucleotides showing 1.3-77 fold changes in expression level after drug treatment. Down regulation after drug treatment is signified by “-” in front of the fold change. In particular embodiments, the information may be obtained at particular timepoints following the onset of therapy, such as about 1 day, 2 days, 3 days, 4 days, 5 days, 6 days, 1 week, 2 weeks, 3 weeks, 4 weeks, 5 weeks, 6 weeks, 7 weeks, 8 weeks, or combinations thereof, or more or less, for example. In the specific embodiments wherein more than one timepoint is evaluated, an average of the timepoints may be obtained.

prostate cell lines [2] = assay: Induction of potential BPH markers in prostate cell lines cultured with androgen or inflammatory agents; format: cell-based, human; conditions: non-cancer prostate cell lines cultured in the presence of the agent
Description: To confirm the expression of CXCL9, 10 and 11, contactin 1 and CXCR3 in prostate tissue, the present inventors examined several non-cancer prostate cell lines for these markers. The prostate epithelial cells RWPE-1 and PWR-1E are androgen responsive nomal or hyperplastic cells transformed with HPV1828, 29. The epithelial cell line BPH 130 is originated from BPH tissue transformed with SV40 T antigen. […] Cells were cultured in their prescribed media and were fixed, permeabilized and stained by standard methods and analyzed by single color flow cytometry. […] To determine if prostate cell expression of CXCL chemokines was responsive to interferon stimulation, stromal and epithelial cell lines were cultured in the presence of IFNγ. Chemokine induction was measured by Q-RT-PCR and is shown as fold induction over basal expression in untreated cells (FIG. 12).

[3] = tested on: hyperplastic prostatic tissue; conditions: cited from earlier work
prostate cell lines [4] = format: cell-based, human; conditions: 4 prostate cell lines, with or without 100 U/ml IFNγ, Q-RT-PCR
Description: 4 prostate cell lines were cultured in media with or without 100 U/ml IFNγ. Chemokine expression was determined by Q-RT-PCR and induction calculated using the 2^−ΔΔCt method compared to untreated cells.
To confirm the expression of CXCL9, 10 and 11, contactin 1 and CXCR3 in prostate tissue, the present inventors examined several non-cancer prostate cell lines for these markers. The prostate epithelial cells RWPE-1 and PWR-1E are androgen responsive nomal or hyperplastic cells transformed with HPV1828, 29. The epithelial cell line BPH 130 is originated from BPH tissue transformed with SV40 T antigen. The cell lines HTS-2T and HPS-19B are primary prostate stromal cell lines from TZ and PZ, respectively (Singh et al., 2004). Cells were cultured in their prescribed media and were fixed, permeabilized and stained by standard methods and analyzed by single color flow cytometry. The chemokines CXCL9, 10 and 11 were present in all cells tested as was contactin 1 (FIG. 11). DKK3 was not tested for lack of a suitable antibody for flow cytometric analysis. CXCR3 was highly expressed in all the cells. […] Chemokine induction was measured by Q-RT-PCR and is shown as fold induction over basal expression in untreated cells (FIG. 12). […]

[5] = treatment with drug between 2 and 6 weeks, TZ BPH tissue

| Molecule | expression of the five markers MIG (CXCL9), IP 10 (CXCL10), I-TAC (CXCL11), Contactin-1 (CNTN1), Dickkopf-3 (DKK3) (TZ BPH prostate tissue) | CKTSF1B1 (Gremlin) differential gene expression (TZ BPH prostate tissue; [5]) | CXCL9 differential gene expression (TZ BPH prostate tissue; [5]) | HLA-DP differential gene expression (TZ BPH prostate tissue; [5]) | HS3ST3B1 differential gene expression (TZ BPH prostate tissue; [5]) | ORM1 differential gene expression (TZ BPH prostate tissue; [5]) | VEGF differential gene expression (TZ BPH prostate tissue; [5]) | WIF1 differential gene expression (TZ BPH prostate tissue; [5]) | expression of chemokines CXCL9 (MIG), CXCL10 (IP-10), CXCL11 (I-TAC) (prostate RNA samples) | CKTSF1B1 (Gremlin) expression fold change after drug treatment [1] | CXCL9 expression fold change after drug treatment [1] | CXCL10 expression fold change after drug treatment [1] | CXCL11 expression fold change after drug treatment [1] | CyclophilinC expression fold change after drug treatment [1] | Frizzled 10 expression fold change after drug treatment [1] | HLA-DP expression fold change after drug treatment [1] | HS3ST3B1 expression fold change after drug treatment [1] | ORM1 expression fold change after drug treatment [1] | VEGF expression fold change after drug treatment [1] | WIF1 expression fold change after drug treatment [1] | other results |
| --- | --- | --- | --- | --- | --- | --- | --- | --- | --- | --- | --- | --- | --- | --- | --- | --- | --- | --- | --- | --- | --- |
| CCOc1ccccc1OCCN[C@H](C)Cc1ccc(OC)c(S(N)(=O)=O)c1 [Tamsulosin, tamsulosin] | decreased | −4.76 fold | −2.86 fold | −2.33 fold | −2.20 fold | 76.96 fold | −2.01 fold | −4.60 fold | decreased | −4.76 fold | −3.37 fold | −4.65 fold | −5.81 fold | −1.87 fold | −1.82 fold | −2.33 fold | −2.20 fold | 76.96 fold | −2.01 fold | −4.60 fold | DKK3 differential gene expression (TZ BPH prostate tissue; [5]): −2.85 fold; Cbl-b expression fold change after drug treatment [1]: 1.30 fold; Dicer 1 expression fold change after drug treatment [1]: 1.30 fold |
| C[C@]1(O)CC[C@H]2[C@@H]3CCC4=CC(=O)CCC4=C3C=C[C@@]21C [R1881] | – | – | – | – | – | – | – | – | – | – | – | – | – | – | – | – | – | – | – | – | changes in BPH marker expression (CXCL9, 10, 11, contactin 1, CXCR3) (prostate cell lines [2]): No changes |
| COc1cc2nc(N3CCN(C(=O)C4COc5ccccc5O4)CC3)nc(N)c2cc1OC (stereo not shown) [doxazosin] | – | – | – | – | – | – | – | – | – | – | – | – | – | – | – | – | – | – | – | – | apoptosis in the stromal compartment of hyperplastic prostatic tissue ([3]; alpha blockade): increases; overall re-occurrence rate of BPH ([3]; alpha blockade): does not decrease |
| CC(C)(C)NC(=O)[C@H]1CC[C@H]2[C@@H]3CC[C@H]4NC(=O)C=C[C@]4(C)[C@H]3CC[C@]12C [Finasteride, finasteride] | decreased | −4.10 fold | −3.61 fold | −2.29 fold | −2.29 fold | 2.38 fold | −2.15 fold | −7.53 fold | decreased | −4.10 fold | −2.85 fold | −2.01 fold | −2.62 fold | −2.52 fold | −2.45 fold | −2.29 fold | −2.29 fold | 2.38 fold | −2.15 fold | −7.53 fold | CTNNB1 differential gene expression (TZ BPH prostate tissue; [5]): 2.26 fold; Frizzled 10 differential gene expression (TZ BPH prostate tissue; [5]): −2.45 fold; KLK4 differential gene expression (TZ BPH prostate tissue; [5]): −3.47 fold; reduction of prostate growth ([3]; over the first year, without recurrance of significant prostatic growth): ≤ 20%; DKK3 expression fold change after drug treatment [1]: −2.28 fold; KLK4 expression fold change after drug treatment [1]: −3.47 fold; SPROUTY2 expression fold change after drug treatment [1]: −1.94 fold; ZNF36 expression fold change after drug treatment [1]: −1.55 fold |
| B1 | – | – | – | – | – | – | – | – | – | – | – | – | – | – | – | – | – | – | – | – | CXCL chemokine expression in prostate cells (prostate cell lines [4]): up-regulated |

From patent US20060194230A1, “Genetic markers associated with benign prostatic hyperplasia” (BAYLOR COLLEGE OF MEDICINE, priority 2005, published 2006)
